Measurements published in US4514413A, “Gastric acid secretion inhibiting N-(imidazol-1-ylalkyl)thiourea derivatives” (BASF Aktiengesellschaft, priority 1982, dated 1985).

Legend:
histamine H2 receptor = biological target: T1, histamine H2 receptor (Rattus norvegicus, UniProt P25102); assay: Inhibition of the dimaprit-induced lowering of the blood pressure (histamine H2 receptor-blocking action); type: in vivo, male Sprague-Dawley rats; conditions: for R.A. (relative activity), inhibition of the dimaprit-induced lowering of the blood pressure / inhibition of dimaprit-induced lowering of the blood pressure (in words): rat
T1 construct: In male Sprague-Dawley rats (weight 210-310 g) which have been anesthetized with urethane; from tissue; host or cells: whole animal in vivo: anesthetized male Sprague-Dawley rats
T1 sequence (P25102 whole entry): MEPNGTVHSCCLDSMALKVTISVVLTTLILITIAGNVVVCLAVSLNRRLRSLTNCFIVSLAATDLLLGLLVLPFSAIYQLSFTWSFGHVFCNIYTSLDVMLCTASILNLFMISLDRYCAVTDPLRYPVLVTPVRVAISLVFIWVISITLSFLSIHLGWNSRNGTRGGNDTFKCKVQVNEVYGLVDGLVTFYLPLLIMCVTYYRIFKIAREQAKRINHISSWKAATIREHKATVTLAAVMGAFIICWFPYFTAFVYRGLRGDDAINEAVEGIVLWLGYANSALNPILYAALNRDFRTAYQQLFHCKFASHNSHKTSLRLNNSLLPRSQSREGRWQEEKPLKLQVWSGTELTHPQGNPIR
Method: The substances tested were administered intravenously 5 minutes before the dimaprit injection. The ED 50% is determined as the dose which inhibits the dimaprit-induced lowering of the blood pressure by 50% (Table 1).

[1] = tested on: secretion of gastric acid; assay: Inhibition of the gastric secretion in the rat (pH at the surface of the gastric mucous membrane); type: in vivo, female Sprague-Dawley rats; conditions: for R.A. (relative activity), inhibition of the gastric secretion: cimetidine = 1.00, subcutaneous administration; for ED 0.75 (dose which increases the pH by 0.75 on average compared with untreated control animals): subcutaneous administration, 1 hour pretreatment, 48 h fasted
Method: Inhibition of the secretion of gastric acid results in an increase in the pH of the gastric mucus membrane. This is investigated on groups of 5 conscious female Sprague-Dawley rats weighing 160-180 g. The animals receive no food for 48 hours (water ad libitum), and are pretreated subcutaneously with various doses of the test substances. […] The dose which increases the pH by 0.75 on average compared with untreated control animals is determined, as the ED 0.75, from the linear regression between the logarithms of the applied doses and the increase in the pH (Table 2).

[2] = cimetidine = 1.00, urethane anesthesia, intravenous administration
[3] = urethane anesthesia, intravenous administration

CCCc1nccn1CCCNC(=S)NCCSCc1ccc(CN(C)C)o1 [Example No. 4]
R.A. (relative activity), inhibition of the dimaprit-induced lowering of the blood pressure (histamine H2 receptor; [2]): 10.00

Cc1nc(C)n(CCCNC(=S)NCCSCc2ccc(CN(C)C)o2)c1C [Example No. 8, N[3-(2,4,5-trimethylimidazol-1-yl)-propyl]-N'{2-[[5-(N,Ndimethylamino-methyl)-furan-2-yl]-methylthio]-ethyl}-thiourea]
R.A. (relative activity), inhibition of the dimaprit-induced lowering of the blood pressure (histamine H2 receptor; [2]): 26.19

CNC(=C[N+](=O)[O-])NCCSCc1ccc(CN(C)C)o1 [Ranitidine, reference compound]
R.A. (relative activity), inhibition of the dimaprit-induced lowering of the blood pressure (histamine H2 receptor; in vivo, iv): 10.48
inhibition of dimaprit-induced lowering of the blood pressure (in words) (histamine H2 receptor; [3]): specific and dose-dependent inhibition
R.A. (relative activity), inhibition of the gastric secretion [1]: 5.23
ED 0.75 (dose which increases the pH by 0.75 on average compared with untreated control animals) ([1]; in mg/kg): 0.086

CC(C)c1nccn1CCCNC(=S)NCCSCc1ccc(CN(C)C)o1 [Example No. 2, N-[3-(2-isopropylimidazol-1-yl)-propyl]-N'-{2-[[5-(N,N-dimethylaminomethyl)-furan-2-yl]-methylthio]-ethyl}-thiourea]
R.A. (relative activity), inhibition of the dimaprit-induced lowering of the blood pressure (histamine H2 receptor; [2]): 22.00

CN(C)CCCSC(=N)N [dimaprit, S-[3-(N,N-dimethylamino)-propyl]-isothiourea, reference compound]
average lowering of the blood pressure (histamine H2 receptor; dimaprit 3.16 mg intravenously, initial pressures 100±1.1 mm Hg, N=70): 27±0.7 mm Hg

CN/C(=N/CCSCc1nc[nH]c1C)NC#N [Cimetidine, reference compound]
R.A. (relative activity), inhibition of the dimaprit-induced lowering of the blood pressure (histamine H2 receptor; [2]): 1.00
inhibition of dimaprit-induced lowering of the blood pressure (in words) (histamine H2 receptor; [3]): specific and dose-dependent inhibition
R.A. (relative activity), inhibition of the gastric secretion [1]: 1.00
ED 0.75 (dose which increases the pH by 0.75 on average compared with untreated control animals) [1]: 0.45 mg/kg

CCc1ncc(C)n1CCCNC(=S)NCCSCc1ccc(CN(C)C)o1 [Example No. 9]
R.A. (relative activity), inhibition of the dimaprit-induced lowering of the blood pressure (histamine H2 receptor; [2]): 10.00

Cc1nccn1CCCNC(=S)NCCSCc1ccc(CN(C)C)o1.O=C(O)C(=O)O.O=C(O)C(=O)O [Example No. 1, N-[3-(2-methylimidazol-1-yl)-propyl]-N'-{2-[[5-(N,N-dimethylaminomethyl)-furan-2-yl]-methylthio]-ethyl}-thiourea dioxalate]
R.A. (relative activity), inhibition of the dimaprit-induced lowering of the blood pressure (histamine H2 receptor; in vivo, iv): 23.91
R.A. (relative activity), inhibition of the gastric secretion [1]: 8.65
ED 0.75 (dose which increases the pH by 0.75 on average compared with untreated control animals) ([1]; in mg/kg): 0.052
times more effective than cimetidine ([1]; vs cimetidine, inhibition of gastric acid secretion, subcutaneous): 8.7 times
times more effective than ranitidine ([1]; vs ranitidine, inhibition of gastric acid secretion, subcutaneous): 1.7 times

CCc1nccn1CCCNC(=S)NCCSCc1ccc(CN(C)C)o1 [Example No. 3, N-[3-(2-ethylimidazol-1-yl)-propyl]-N'-{2-[[5-(N,N-dimethylaminomethyl)-furan-2-yl]-methylthio]-ethyl}-thiourea dioxalate]
R.A. (relative activity), inhibition of the dimaprit-induced lowering of the blood pressure (histamine H2 receptor; [2]): 12.94
